Results published in ChEMBL document CHEMBL1143223, “Synthesis and in vitro activity of 1-(2,3-dichlorophenyl)-N-(pyridin-3-ylmethyl)-1H-1,2,4-triazol-5-amine and 4-(2,3-dichlorophenyl)-N-(pyridin-3-ylmethyl)-4H-1,2,4-triazol-3-amine P2X7 antagonists” (Bioorg Med Chem Lett, 2008).

What was measured:
P2X purinoceptor 7 [1] = target: T1, P2X purinoceptor 7 (Homo sapiens, UniProt Q99572); assay: Antagonist activity at human recombinant P2X7 receptor assessed as inhibition of BzATP-induced calcium flux by FLIPR assay; format: functional
T1 sequence (Q99572 whole entry): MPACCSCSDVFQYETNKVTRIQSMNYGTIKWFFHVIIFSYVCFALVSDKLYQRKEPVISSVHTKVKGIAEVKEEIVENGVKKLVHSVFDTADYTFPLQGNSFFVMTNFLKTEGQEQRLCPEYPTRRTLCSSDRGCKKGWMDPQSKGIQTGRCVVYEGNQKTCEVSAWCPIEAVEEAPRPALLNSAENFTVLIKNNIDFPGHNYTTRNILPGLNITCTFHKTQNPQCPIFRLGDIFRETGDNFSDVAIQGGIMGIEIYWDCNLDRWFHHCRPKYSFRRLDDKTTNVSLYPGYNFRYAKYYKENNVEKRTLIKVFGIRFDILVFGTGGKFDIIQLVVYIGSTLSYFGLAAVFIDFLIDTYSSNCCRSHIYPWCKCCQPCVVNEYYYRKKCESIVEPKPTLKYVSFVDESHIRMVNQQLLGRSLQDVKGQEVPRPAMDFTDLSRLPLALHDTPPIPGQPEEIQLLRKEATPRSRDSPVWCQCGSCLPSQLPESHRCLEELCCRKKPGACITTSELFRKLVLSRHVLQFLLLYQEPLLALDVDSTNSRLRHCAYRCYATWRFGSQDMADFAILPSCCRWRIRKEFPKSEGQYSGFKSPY

P2X purinoceptor 7 [2] = target: T2, P2X purinoceptor 7 (Rattus norvegicus, UniProt Q64663); assay: Antagonist activity at rat recombinant P2X7 receptor assessed as inhibition of BzATP-induced calcium flux by FLIPR assay; format: functional
T2 sequence (Q64663 whole entry): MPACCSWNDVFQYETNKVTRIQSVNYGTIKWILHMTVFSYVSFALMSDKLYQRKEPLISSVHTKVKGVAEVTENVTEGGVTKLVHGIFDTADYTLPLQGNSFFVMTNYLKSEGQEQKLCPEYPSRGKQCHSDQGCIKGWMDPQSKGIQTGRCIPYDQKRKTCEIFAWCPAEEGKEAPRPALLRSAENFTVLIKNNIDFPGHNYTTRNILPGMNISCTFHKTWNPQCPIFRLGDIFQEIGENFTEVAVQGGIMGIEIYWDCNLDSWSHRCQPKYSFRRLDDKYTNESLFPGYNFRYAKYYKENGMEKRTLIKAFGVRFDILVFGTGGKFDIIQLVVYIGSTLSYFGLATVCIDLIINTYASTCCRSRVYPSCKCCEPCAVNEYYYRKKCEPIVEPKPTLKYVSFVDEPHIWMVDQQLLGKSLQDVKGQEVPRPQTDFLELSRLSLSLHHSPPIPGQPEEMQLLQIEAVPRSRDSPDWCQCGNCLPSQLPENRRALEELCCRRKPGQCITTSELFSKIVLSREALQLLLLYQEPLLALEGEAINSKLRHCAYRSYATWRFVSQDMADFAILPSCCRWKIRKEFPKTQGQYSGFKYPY

Row | SMILES | IC50 (P2X purinoceptor 7 [1]) [nM] | IC50 (P2X purinoceptor 7 [2]) [nM]
1 | COc1ccccc1Nc1ncnn1-c1cccc(Cl)c1Cl | 102 | 2040
2 | Clc1cccc(-n2ncnc2NCc2ccncc2)c1Cl | > 10000 | > 10000
3 | Clc1cccc(-n2ncnc2Nc2ccccc2N2CCOCC2)c1Cl | 3390 | 4900
4 | Clc1cccc(-n2ncnc2Nc2ccccc2)c1Cl | 363 | 3890
5 | Clc1cccc(-n2ncnc2NCc2cccnc2)c1Cl | 117 | 1320
6 | CC(C)N1CCCN(c2ncccc2CNc2nncn2-c2cccc(Cl)c2Cl)CC1 | 67.6 | 
7 | Cc1cccc(CNc2ncnn2-c2cccc(Cl)c2Cl)c1 | 155 | 1020
8 | Cc1ccc(CNc2ncnn2-c2cccc(Cl)c2Cl)cc1 | 479 | 7080
9 | Cc1cccc(CNc2ncnn2-c2cccc(Cl)c2Cl)c1C | 67.6 | 631
10 | Clc1cccc(-c2nnnn2Cc2cccnc2)c1Cl | 123 | 309
11 | CCOc1ccccc1Nc1ncnn1-c1cccc(Cl)c1Cl | 1860 | 11000
12 | COc1cccc(CNc2ncnn2-c2cccc(Cl)c2Cl)c1 | 288 | 1380
13 | Clc1cccc(-n2cnnc2NCc2cccnc2)c1Cl | 355 | 1120
14 | FC(F)(F)Oc1ccccc1Nc1ncnn1-c1cccc(Cl)c1Cl | 617 | 5500
15 | COc1ccc(CNc2ncnn2-c2cccc(Cl)c2Cl)cc1 | 1620 | 10500

Stronger by IC50 (P2X purinoceptor 7 [1]), values ahead:

Row | IC50 (P2X purinoceptor 7 [1]) [nM] | IC50 (P2X purinoceptor 7 [2]) [nM] | SMILES
16 | 30.9 | 35.5 | Clc1cccc(-n2cnnc2NCc2cccnc2Oc2cccnc2)c1Cl
17 | 45.7 | 490 | CCOc1ccccc1CNc1ncnn1-c1cccc(Cl)c1Cl
18 | 12.6 | 28.2 | Clc1cccc(-n2ncnc2NCc2cccnc2N2CCCC2)c1Cl
19 | 28.8 | 178 | Cc1ncccc1CNc1nncn1-c1cccc(Cl)c1Cl
20 | 15.1 | 138 | Clc1cccc(-n2ncnc2NCc2cccnc2-c2ccsc2)c1Cl
21 | 13.8 | 129 | Clc1cccc(-n2ncnc2NCc2cccnc2Oc2cccnc2)c1Cl
22 | 32.4 |  | NC(=O)CN1CCCN(c2ncccc2CNc2nncn2-c2cccc(Cl)c2Cl)CC1
23 | 17.8 | 240 | Cc1ccccc1Nc1ncnn1-c1cccc(Cl)c1Cl
24 | 45.7 | 288 | CCc1ccccc1Nc1ncnn1-c1cccc(Cl)c1Cl
25 | 30.9 | 135 | COc1cccc(CNc2ncnn2-c2cccc(Cl)c2Cl)c1OC
26 | 14.8 | 12 | Clc1cccc(-n2cnnc2NCc2cccnc2N2CCCC2)c1Cl
27 | 47.9 | 209 | Clc1cccc(-n2ncnc2NCc2ccccc2)c1Cl
28 | 46.8 | 158 | Clc1cccc(-n2ncnc2NCc2ccccc2Oc2cccnc2)c1Cl
29 | 9.12 | 25.7 | Clc1cccc(-n2ncnc2NCc2cccnc2N2CCC2)c1Cl
30 | 11 | 36.3 | Clc1cccc(-n2cnnc2NCc2cccnc2-c2ccsc2)c1Cl
31 | 20.9 | 200 | Cc1ccccc1CNc1ncnn1-c1cccc(Cl)c1Cl
32 | 39.8 | 45.7 | Cc1nnc(NCc2cccnc2-c2ccsc2)n1-c1cccc(Cl)c1Cl
33 | 57.5 | 708 | COc1ccccc1CNc1ncnn1-c1cccc(Cl)c1Cl
34 | 20 | 39.8 | CS(=O)(=O)c1ccccc1CNc1ncnn1-c1cccc(Cl)c1Cl
35 | 49 | 288 | CSc1ccccc1CNc1ncnn1-c1cccc(Cl)c1Cl
36 | 28.2 | 214 | Clc1cccc(-n2ncnc2NCc2cccnc2N2CCOCC2)c1Cl
37 | 11.7 | 295 | Cc1ncccc1CNc1ncnn1-c1cccc(Cl)c1Cl
